Where a SMILES comes first, the peptide text is derived from it.
Key:
[1] = tested on: PC-3 cells; test: Microscopic evaluation of cellular uptake (live-cell imaging); assay type: cell-based, Human; conditions: TAMRA-labeled bioportide 5 µM, 1 h, 37 °C, 5% CO2, phenol red-free RPMI-1640, live-cell fluorescence imaging (EVOS M5000), 3 independent experiments
Description: (§1) To evaluate the intracellular accumulation of bioportides, PC-3 and LnCaP cells were seeded in a 24-well plate (6.00 × 10^4 and 7.50 × 10^4 cells/well, respectively) and incubated for 24 h at 37 °C under a 5% CO2 atmosphere. After washing cells with phosphate buffered saline (PBS-1×), the growth medium was exchanged for phenol red-free RPMI-1640 medium containing 5µM of TAMRA-labeled CAVPENET or CAVPENET control and incubated for 1 h. After the incubation time, the cells were washed in phenol red-free RPMI-1640 medium and observed by EVOS^TM M5000 Imaging, and photos were obtained. Live-cell imaging was used to avoid fixation artifacts. Untreated cells were included as background reading.
(§2) Figure 1 Translocation of CAVPENET control and CAVPENET bioportides into (A) PC-3 and (B) LnCaP cells. PCa cells (PC-3 and LnCaP) were incubated with TAMRA-labeled bioportides (5 µM) for 1 h at 37 °C and 5% CO2 atmosphere. Representative images from 3 independent experiments are represented. DIC: differential interference contrast. Scale bar: 150 μm.

[2] = tested on: LnCaP cells; test: as above; assay type: cell-based, Human; conditions: TAMRA-labeled bioportide 5 µM, 1 h, 37 °C, 5% CO2, phenol red-free RPMI-1640, live-cell fluorescence imaging (EVOS M5000), 3 independent experiments
Description: as §1, §2

[3] = phase II clinical trial; cited from earlier work
Source text: Despite the apparent anticancer role of CPT1, by reducing the availability of fatty acids, excess CPT1 seems to support PCa cell proliferation by an ROS-mediated stress phenotype. Moreover, a CPT1 knockout was associated with inhibition of PCa cell invasion, becoming an important therapeutic target for PCa. In this context, different compounds have been produced to target this protein [52]. […] Alternatively, ...

[4] = tested on: cancer cells; conditions: cited from earlier work; for cancer cell apoptosis: cancer cells
Description: Targeting protein phosphorylation has long been explored as a strategy for cancer treatment. For instance, several kinase inhibitors have been approved by the FDA as anticancer therapies. In the context of phosphatases, targeting the PP1 active site was one of the earliest proposed approaches for anticancer therapeutic development. The potential therapeutic effect of PP1 inhibitors tautomycin and calyculin A was evaluated in cancer cells.

[5] = tested on: several types of cells, including different tumor cell lines; conditions: cited from earlier work

With CC[C@H](C)[C@H](NC(=O)[C@H](Cc1ccccc1)NC(=O)[C@H](CC(=O)O)NC(=O)[C@@H](NC(=O)[C@@H](N)C(C)C)C(C)C)C(=O)N[C@@H](CCCCN)C(=O)N[C@@H](CCC(=O)O)C(=O)N[C@@H](CC(=O)O)C(=O)N[C@@H](CCCNC(=N)N)C(=O)N[C@@H](CCC(N)=O)C(=O)N[C@H](C(=O)N[C@@H](CCCCN)C(=O)N[C@H](C(=O)N[C@@H](Cc1c[nH]c2ccccc12)C(=O)N[C@@H](Cc1ccccc1)C(=O)N[C@@H](CCC(N)=O)C(=O)N[C@@H](CC(N)=O)C(=O)N[C@@H](CCCNC(=N)N)C(=O)N[C@@H](CCCNC(=N)N)C(=O)N[C@@H](CCSC)C(=O)N[C@@H](CCCCN)C(=O)N[C@@H](Cc1c[nH]c2ccccc12)C(=O)N[C@@H](CCCCN)C(=O)N[C@@H](CCCCN)C(N)=O)[C@@H](C)CC)[C@@H](C)CC [CAVPENET control] (H-VVDFIKEDRQIKIWFQNRRMKWKK-NH2) the cellular internalization [1] was “demonstrated cellular internalization” and the cellular internalization [2] was “demonstrated cellular internalization”.

For CC[C@H](C)[C@H](NC(=O)[C@H](CCCCN)NC(=O)[C@@H](NC(=O)[C@@H](N)C(C)C)C(C)C)C(=O)N[C@@H](CC(=O)O)C(=O)N[C@@H](Cc1ccccc1)C(=O)N[C@@H](CCC(=O)O)C(=O)N[C@@H](CC(=O)O)C(=O)N[C@@H](CCCNC(=N)N)C(=O)N[C@@H](CCC(N)=O)C(=O)N[C@H](C(=O)N[C@@H](CCCCN)C(=O)N[C@H](C(=O)N[C@@H](Cc1c[nH]c2ccccc12)C(=O)N[C@@H](Cc1ccccc1)C(=O)N[C@@H](CCC(N)=O)C(=O)N[C@@H](CC(N)=O)C(=O)N[C@@H](CCCNC(=N)N)C(=O)N[C@@H](CCCNC(=N)N)C(=O)N[C@@H](CCSC)C(=O)N[C@@H](CCCCN)C(=O)N[C@@H](Cc1c[nH]c2ccccc12)C(=O)N[C@@H](CCCCN)C(=O)N[C@@H](CCCCN)C(N)=O)[C@@H](C)CC)[C@@H](C)CC [CAVPENET] (H-VVKIDFEDRQIKIWFQNRRMKWKK-NH2), the cellular internalization [1] was “demonstrated cellular internalization” and the cellular internalization [2] was “demonstrated cellular internalization”.

For CCOC(=O)[C@@]1(CCCCCCOc2ccc(Cl)cc2)CO1 [Etomoxir], the hepatotoxicity [3] is listed as “hepatotoxicity hampered definitive testing”.

For COC[C@@H]([C@H](O)[C@H](O)C(=O)NCC[C@H](C)c1nc(/C=C/C[C@@H]2O[C@]3(C[C@@H](O)[C@@H]2C)O[C@H]([C@H](C[C@H](O)[C@H](C)[C@H](O)[C@H](C)/C=C(C)/C(C)=C/C=C/C(C)=C\C#N)OC)[C@H](OP(=O)(O)O)C3(C)C)co1)N(C)C [calyculin A], the cancer cell apoptosis [4] is listed as “effectiveness in causing cancer cell apoptosis” and the toxic effects [4] is listed as “significant toxic effects”.

For CO[C@H]([C@H](O)CC(=O)[C@@H](C)[C@@H](O)CC[C@@H](C)[C@@H]1O[C@]2(CC[C@@H](C)[C@H](CC[C@H](C)C(C)=O)O2)CC[C@@H]1C)[C@H](OC(=O)C[C@@H](O)C1=C(C)C(=O)OC1=O)C(C)C [tautomycin], the cancer cell apoptosis [4] is given as “effectiveness in causing cancer cell apoptosis” and the toxic effects [4] is given as “significant toxic effects”.

In the case of RQIKIWFQNRRMKWKK [Penetratin], the “toxic effects in cells” value [5] is listed as “absence of toxic effects”.
